Source: ChEMBL document CHEMBL1201862, “PubChem BioAssay data set” (2004)
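Step 1: Grow cells in 96-well plates. Step 2: Expose to compound for 48 hours at 5 concentrations. Step 3: Interpolate endpoints linearly; if unreached, use highest concentration. At the GI50, growth is halved.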 Calls of active or inactive are those of the source. Cut-off read from the data, not from the text of the source: active = GI50 up to about 1.1 µM and inactive = higher.

What was measured:
Test in all cases: NCI tumour cell line growth inhibition, 48 h
[1] = test system: UACC-62
[2] = test system: Malme-3M
[3] = test system: SF-295
[4] = test system: MDA-MB-231
[5] = test system: T47D
[6] = test system: SNB-19
[7] = test system: HOP-92
[8] = test system: MCF7
[9] = test system: SW-620
[10] = test system: IGROV-1
[11] = test system: OVCAR-3
[12] = test system: MDA-N
[13] = test system: SK-MEL-2
[14] = test system: HOP-62
[15] = test system: OVCAR-4
[16] = test system: SK-MEL-28
[17] = test system: MDA-MB-435
[18] = test system: HT-29
[19] = test system: Hs-578T
[20] = test system: OVCAR-5

SMILES | GI50 [1] | GI50 [2] | GI50 [3] | GI50 [4] | GI50 [5] | GI50 [6] | GI50 [7] | GI50 [8] | GI50 [9] | GI50 [10] | GI50 [11] | GI50 [12] | GI50 [13] | GI50 [14] | GI50 [15] | GI50 [16] | GI50 [17] | GI50 [18] | GI50 [19] | GI50 [20]
CCNC(=O)Cc1nc2c(N)ncnc2n1C1OC(CO)C(O)C1O (stereo unspecified) | > 100 µM (inactive) | > 100 µM (inactive) | > 100 µM (inactive) | > 100 µM (inactive) | 58.6 µM (inactive) | > 100 µM (inactive) | > 100 µM (inactive) | 23.3 µM (inactive) | > 100 µM (inactive) | > 100 µM (inactive) | > 100 µM (inactive) | > 100 µM (inactive) | 48.6 µM (inactive) | > 100 µM (inactive) | 23.5 µM (inactive) | > 100 µM (inactive) | > 100 µM (inactive) | > 100 µM (inactive) | > 100 µM (inactive) | –
NP(=O)(OCC1=CC(=O)c2ccccc2C1=O)N(CCBr)CCBr (stereo unspecified) | 2.24 µM (inactive) | 0.979 µM (active) | 8.81 µM (inactive) | 11.4 µM (inactive) | 3.48 µM (inactive) | 18.3 µM (inactive) | 13.3 µM (inactive) | 2.07 µM (inactive) | 2.32 µM (inactive) | 12.6 µM (inactive) | 3.02 µM (inactive) | 1.65 µM (inactive) | 4.26 µM (inactive) | – | 16.4 µM (inactive) | 4.23 µM (inactive) | 2.14 µM (inactive) | 11.1 µM (inactive) | 31.5 µM (inactive) | 22.3 µM (inactive)
C=CCN1C[C@H](C)N([C@H](c2ccc(C(=O)NC(CC)CC)cc2)c2cccc(OC)c2)C[C@H]1C | 20.8 µM (inactive) | 20.4 µM (inactive) | 39.8 µM (inactive) | 28 µM (inactive) | 29 µM (inactive) | 75 µM (inactive) | 31.7 µM (inactive) | 35.2 µM (inactive) | 29.9 µM (inactive) | 65.3 µM (inactive) | 52.4 µM (inactive) | 37.3 µM (inactive) | 20.9 µM (inactive) | > 100 µM (inactive) | 46 µM (inactive) | – | 35.6 µM (inactive) | 25.1 µM (inactive) | > 100 µM (inactive) | 59.6 µM (inactive)
CC(=O)N1C(Nc2ccccn2)CCN1c1ccccc1 (stereo unspecified) | – | > 10 µM (inactive) | > 10 µM (inactive) | > 10 µM (inactive) | > 10 µM (inactive) | > 10 µM (inactive) | > 10 µM (inactive) | > 10 µM (inactive) | > 10 µM (inactive) | > 10 µM (inactive) | > 10 µM (inactive) | > 10 µM (inactive) | > 10 µM (inactive) | > 10 µM (inactive) | > 10 µM (inactive) | > 10 µM (inactive) | > 10 µM (inactive) | > 10 µM (inactive) | > 10 µM (inactive) | > 10 µM (inactive)
Cc1ccc([N+](=O)[O-])cc1S(=O)(=O)Nc1ccc(C2=NN(C(=O)c3ccccc3)C(c3cccs3)C2)cc1 (stereo unspecified) | – | 19.1 µM (inactive) | 21 µM (inactive) | 16.3 µM (inactive) | 9.42 µM (inactive) | 33 µM (inactive) | 12.6 µM (inactive) | 18.1 µM (inactive) | 45.5 µM (inactive) | 16.9 µM (inactive) | 13 µM (inactive) | 23.8 µM (inactive) | 14.9 µM (inactive) | 20.9 µM (inactive) | 25.6 µM (inactive) | 63.5 µM (inactive) | 33.1 µM (inactive) | 26.3 µM (inactive) | 27 µM (inactive) | 42.5 µM (inactive)
CC(=O)c1c2c(cc3c1CC1(C3)Cc3cc4c(c(C(C)=O)c3C1)CCCC4)CCCC2 | > 100 µM (inactive) | > 100 µM (inactive) | > 100 µM (inactive) | > 100 µM (inactive) | 62.2 µM (inactive) | – | 81.8 µM (inactive) | 56.2 µM (inactive) | – | > 100 µM (inactive) | 41.6 µM (inactive) | 38.4 µM (inactive) | 19.7 µM (inactive) | > 100 µM (inactive) | 53.2 µM (inactive) | – | 57.7 µM (inactive) | 63.2 µM (inactive) | > 100 µM (inactive) | > 100 µM (inactive)
O=c1cc(N2CCCC2)[nH]c(=O)n1-c1cccc(Cl)c1 | > 100 µM (inactive) | > 100 µM (inactive) | > 100 µM (inactive) | > 100 µM (inactive) | > 100 µM (inactive) | > 100 µM (inactive) | > 100 µM (inactive) | > 100 µM (inactive) | > 100 µM (inactive) | > 100 µM (inactive) | > 100 µM (inactive) | > 100 µM (inactive) | > 100 µM (inactive) | > 100 µM (inactive) | > 100 µM (inactive) | – | > 100 µM (inactive) | > 100 µM (inactive) | > 100 µM (inactive) | > 100 µM (inactive)
